Legend:
Aβ1-42 oligomers [1] = target: T1, Aβ1-42 oligomers (Homo sapiens, UniProt P05067); experiment: Selectivity for Aβ1-42 over tau domain (fluorescence); type: binding; conditions: tau repeat domain 3 aggregates
T1 construct: Aβ1-42 peptide was aggregated at 37 °C for 8 hours
Description: Considering that tau protein aggregation is also a major pathological feature of AD, the selectivity of IK15j for Aβ1-42 over tau domains was further evaluated. […] Since repeat domain 3 is a core region of tau aggregates, IK15j was incubated with the tau domain or with Aβ1-42, and the resulting changes in fluorescence intensity were compared. Briefly, Aβ1-42 and tau aggregate samples were each treated with IK15j, and the fluorescence intensity was measured. As a result, the signal of IK15j increased in the presence of Aβ1-42 oligomers compared to that of the tau domain (FIG. 3E).

Aβ1-42 oligomers [2] = target: T1, Aβ1-42 oligomers; experiment: Selectivity for blood proteins: Aβ1-42 oligomers; type: binding; conditions: IK15j (25 µM); compared with albumin and fibrinogen
Description: Aβ1-42 peptide was aggregated at 37 °C for 8 hours, and 25 µM of Aβ1-42 oligomers, albumin (Sigma-Aldrich, USA), and fibrinogen (Sigma-Aldrich, USA) were seeded into a black microplate. Each sample was treated with IK15j (100 µM) for 8 hours at room temperature. The signal of each sample was detected using a microplate reader (λex = 285 nm / λem = 475 nm).
Excluding water, the solid components of plasma consist of coagulation factors and plasma proteins. Albumin is the most abundant protein in plasma, and fibrinogen is a major coagulation factor in plasma. Considering the possibility that fibrinogen or albumin might interact with AD diagnostic tools and interfere with compound selectivity, IK15j (25 µM) was incubated with Aβ1-42, albumin, or fibrinogen as described in Reference Example 10, and the fluorescence signal of each sample was measured to evaluate the selectivity of the compound of the present disclosure against these proteins.

[3] = target: T2, Aβ1-42-Aβn-(n+5) complexes (Homo sapiens, UniProt P05067); experiment: Mapping Amyloid Plate (MAP): binding to complexes of Aβ1-42 with fragments
T2 construct: full-length Aβ1-42 peptide was added to the MAP and incubated at 37 °C for 8 hours
T2 sequence (P05067 672-713, one chain of several): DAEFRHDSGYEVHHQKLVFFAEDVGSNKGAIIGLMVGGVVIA
Description: A Mapping Amyloid Plate (MAP) for investigating the target site of the compound of the present disclosure on Aβ1-42 fragments or Aβ1-42 oligomers was prepared with reference to Korean Patent Application No. 10-2023-0133625, which is incorporated herein by reference in its entirety.
(§1) Briefly, to remove the bovine serum albumin coating from the plate, each well of the plate was washed three times with 200 µL of wash buffer (0.1 M sodium phosphate, 0.15 M sodium chloride, 0.05 % Tween-20, pH 7.2). Full-length and fragmented peptides of Aβ1-42 were individually dissolved in DMSO to prepare […] stock solutions, which were then diluted with binding buffer (0.1 M sodium phosphate, 0.15 M sodium chloride, 10 mM EDTA, pH 7.2) to prepare 50 µg/mL peptide solutions (5 % DMSO). 100 µL of the peptide solution was added to each well and allowed to react with the maleimide at room temperature overnight. After peptide immobilization, unbound peptides were removed by washing three times with 200 µL of wash buffer. To inactivate residual maleimide groups, 200 µL of a cysteine solution (10 µg/mL in binding buffer) was added to each well and incubated at room temperature for 1 hour. After cysteine capping, all wells of the plate were washed three times with 200 µL of wash buffer.
Two conditions were prepared to confirm whether the compound of the present disclosure targets the structure or the sequence of Aβ oligomers. First, the compound of the present disclosure (50 µM) was prepared in binding buffer (10 % DMSO), and 100 µL of the compound was added to the MAP and treated for 24 hours at room temperature. After incubation, all wells were washed three times with 200 µL of wash buffer. Second, full-length Aβ1-42 peptide was added to the MAP and incubated at 37 °C for 8 hours to form complexes between full-length Aβ1-42 and fragmented Aβ1-42. […] The fluorescence intensity of both plates was measured using a microplate reader (λex = 285 nm/λem = 475 nm). […]

Aβ oligomers (oAβ) = target: T3, Aβ oligomers (oAβ) (Homo sapiens, UniProt P05067); experiment: Fluorescence on plate-immobilized Aβ monomers and oligomers; type: binding; conditions: mAβ and oAβ at 10 µM each immobilized on a plate; IK15j (100 µM) for 24 hours
T3 construct: Full-length and fragmented peptides of Aβ1-42 were individually dissolved in DMSO
T3 sequence (P05067 672-713): as the sequence (P05067 672-713, one chain of several) above
Description: as §1, with “To inactivate residual maleimide groups, 200 µL of a cysteine solution (10 µg/mL in binding buffer) was added to each well and incubated at room temperature for 1 hour. After cysteine capping, all wells of the plate were washed three times with 200 µL of wash buffer.” left out
In addition, considering that EPPS might interfere with the interaction between IK15j and Aβ monomers, Aβ monomers and oligomers were immobilized on a plate according to the Aβ immobilization protocol of Reference Example 2, and then incubated with IK15j. Briefly, Aβ monomers (mAβ) and Aβ oligomers (oAβ) at 10 µM each were immobilized on a plate, treated with IK15j (100 µM) for 24 hours, and the fluorescence intensity was then measured; blank wells were treated with IK15j (100 µM) alone without immobilization of Aβ species.

[4] = MAP incubated with additional Aβ1-42 for 8 hours, then IK15j for 24 hours

T1 sequence (P05067 672-713): as the sequence (P05067 672-713, one chain of several) above

signal in the presence of Aβ1-42 oligomers compared to the tau domain (Aβ1-42 oligomers [1]): increased
fluorescence intensity in the presence of Aβ1-42 oligomers compared to other proteins (Aβ1-42 oligomers [2]): increased markedly
binding affinity for the N-terminus of Aβ, Aβ1-8 (DAEFRHDS) ([3]; MAP complexes): moderate binding affinity
binding to complexes of Aβ1-42 with Aβ19-25 (FFAEDVG) and Aβ35-42 (MVGGVVIA) [3, 4]: bound strongly
overall signal in the presence of Aβ1-42-Aβn-(n+5) complexes [3, 4]: increased
fluorescence signal with Aβ oligomers in contrast to Aβ monomers (Aβ oligomers (oAβ)): markedly increased
SMILES: Cc1ccc2c(c1)c(-c1ccccc1)cn1c(C)cc(C#N)c21 [IK15j, 3,8-dimethyl-6-phenylpyrrolo[2,1-a]isoquinoline-1-carbonitrile]

Reference: patent EP4755889A1, “COMPOUND FOR DETECTING AMYLOID-BETA OLIGOMER AND METHOD FOR DIAGNOSING DEGENERATIVE BRAIN DISEASE USING SAME” (Amyloid Solution Inc., priority 2024, dated 2025)
